The source of these data is US5690956A, “Hair care perming agent” (priority 1995, dated 1997).

Broadly, the solubility is the dissolved amount per volume that the medium holds. A higher solubility goes with a readily soluble substance.

Data set [1] deals with soluble proteins, such as antibodies. Particulars: in the presence of 6M guanidine or 8M urea; cited from earlier work.
The test system of data set [2] is disulfide bonds in hair. Put plainly: Reduction (cleavage) of disulfide bonds in hair protein. The class given is biochemical, human. The text has this: The extent of cleavage of disulfide bonds using thioglycollate depends on the concentration of the reducing agent and on the amount of mechanical stress applied to the hair shaft. In spite of the conditions used in performing a reduction of the disulfide bonds, in prior practice in a laboratory setting, no more than 65-70% of the protein cystine bonds in hair were disrupted. In the actual practice of hair perming, the reduction level is even lower, ranging between 19% and 43%. When using thioglycollate as a reducing agent, the optimal perming condition occurs using ambient temperatures and a 5% (w/v) solution of thioglycollate.
2) The reducing reactions are conducted under conditions of ambient or slightly elevated temperature in a mildly acidic buffer media ranging in a pH from 2.0-5.6 and with a TCEP concentration range of 5-10% w/v. The reaction occurs over a period of about 15 minutes.

For data set [3], the system named is hair, especially the cuticle. Put plainly: Damage to hair (cuticle). Also on record: species or system human. The settings on record: vs sulfhydryl reducing agents in alkaline pH.
Data set [4] can be described thus: Stability of TCEP (aqueous acidic media, air oxidation, temperature). The class given is physicochemical.
The next data set can be described thus: Water solubility of TCEP. Type of data set: physicochemical.
In a further data set the test system is human hosts. In words: Human safety of the reducing agent.
For data set [5], the system named is disulfide bonds in hair. The settings on record: laboratory setting, prior practice; cited from earlier work.
Data set [6] concerns hair, especially the cuticle. The settings on record: elevated pH, usually pH 9-12; prior art; cited from earlier work.

Each structure is given as a SMILES string.

As to `Cl.O=C(O)CCP(CCC(=O)O)CCC(=O)O` [TCEP, Tris-(2-carboxy-ethyl) phosphine hydrochloride], the “function as reducing agent on soluble proteins” value in data set [1] is “function well”. In addition, in the data set with disulfide bonds in hair [2], the “reactivity toward other functional groups found in hair” value is “essentially non-reactive”; the “reduction of some of the most stable disulfide bonds in hair” value is “Selective and complete reduction”. In the data set on disulfide bonds in hair [2] (acidic pH), the “effectiveness in reducing disulfide bonds vs dithiothreitol, mercaptoethanol, or thioglycollic acid” value was “more effective than traditional sulfhydryl reducing agents”. The “period over which the reducing reaction occurs” value with disulfide bonds in hair [2] (pH 2.0-5.6, TCEP 5-10% w/v, ambient or slightly elevated temperature) was “about 15 minutes”. The “damage to hair, especially the cuticle” value in data set [3] is reported as “lower instance of damaged hair”. Also, in data set [4] (air), the “resistance to air oxidation” value is listed as “substantially resistant to air oxidation”. Besides, the “stability in aqueous acidic media” value in data set [4] (aqueous acidic media) is “stable in aqueous acidic media”. Also, the “stability when exposed to fluctuations in temperature” value in data set [4] (fluctuations in temperature) is given as “very stable”. This compound gave a solubility in “Water solubility of TCEP” of approximately 310 mg/mL. Further, the “toxicity to human hosts / safety profile” value with human hosts is given as “not toxic to human hosts”.
Take `O=C(O)CS` [thioglycollate, thioglycollic acid]: in the data set with disulfide bonds in hair [5], the “protein cystine bonds in hair disrupted (extent of reduction)” value is listed as 65-70%. Further, the cuticle damage result in data set [6] was “severe cuticle damage”.
